Assay results published in patent US7741327B2 (Hoffmann-La Roche Inc., priority 2008, dated 2010).

Molecular target: T1, Recombinant human liver GK1 (GST-GK) (Homo sapiens, UniProt P35557)
T1 construct: made in house; host or cells: E. coli
T1 sequence (P35557 1-466 isoform P35557-2): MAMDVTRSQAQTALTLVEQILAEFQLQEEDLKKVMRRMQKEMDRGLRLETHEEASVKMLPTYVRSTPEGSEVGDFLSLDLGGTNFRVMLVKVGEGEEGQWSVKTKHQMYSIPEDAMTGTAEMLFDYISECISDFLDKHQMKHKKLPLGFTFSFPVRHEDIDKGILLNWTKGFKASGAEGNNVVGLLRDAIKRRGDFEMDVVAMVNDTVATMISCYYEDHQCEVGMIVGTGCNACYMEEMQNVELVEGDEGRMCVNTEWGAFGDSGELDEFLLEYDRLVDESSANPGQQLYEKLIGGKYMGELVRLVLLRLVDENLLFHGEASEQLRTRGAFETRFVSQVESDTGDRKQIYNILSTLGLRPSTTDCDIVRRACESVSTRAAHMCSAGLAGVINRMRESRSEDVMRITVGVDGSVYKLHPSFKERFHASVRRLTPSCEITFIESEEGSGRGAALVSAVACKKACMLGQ
Experiment: In vitro glucokinase activity (G6PDH-coupled NADH assay)
Assay type: biochemical
Conditions: 30° C., 5 mM D-glucose, 10% DMSO
Method in brief: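 Activation measured as the rate of OD340 rise from G6PDH-coupled NADH production, relative to 10% DMSO control, reported as SC1.5 (concentration for 50% activity increase). Conditions: 30° C, pH 7.1 Hepes, 5 mM glucose, 1 mM ATP, purified recombinant GST-human GK1, compound preincubated 10 min before enzyme addition.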

| Structure (SMILES) | SC1.5 (concentration of activator that produced a 50% increase in the activity of GK) |
| --- | --- |
| COc1cccc(OC2=CC(=O)N([C@@H](CC(C)C)C(=O)Nc3ccn(CC(C)(C)O)n3)C2)c1Cl [Example 48, (S)-2-[4-(2-Chloro-3-methoxy-phenoxy)-2-oxo-2,5-dihydro-pyrrol-1-yl]-4-methyl-pentanoic acid [1-(2-hydroxy-2-methyl-propyl)-1H-pyrazol-3-yl]-amide] | 0.078 µM |
| COc1cccc(OC2=CC(=O)N([C@@H](CC(C)C)C(=O)Nc3ccn(C[C@@H](O)CO)n3)C2)c1Cl [Example 49] | 0.079 µM |
| CC(C)C[C@@H](C(=O)Nc1ccn(C[C@@H](O)CO)n1)N1CC(Oc2cccc(N(C)C)c2F)=CC1=O.Cl [Example 140, (S)-2-[4-(3-Dimethylamino-2-fluoro-phenoxy)-2-oxo-2,5-dihydro-pyrrol-1-yl]-4-methyl-pentanoic acid [1-((R)-2,3-dihydroxy-propyl)-1H-pyrazol-3-yl]-amide hydrochloride] | 0.37 µM |
| CC(C)OC1=CC(=O)N([C@@H](CC2CCCC2)C(=O)Nc2cnccn2)C1 [Example 23, (S)-3-Cyclopentyl-N-(pyrazin-2-yl)-2-(4-isopropoxy-2-oxo-2,5-dihydro-pyrrol-1-yl)-propionamide] | 5.216 µM |
| COCCc1nsc(NC(=O)[C@H](CC(C)C)N2CC(Oc3ccccc3Cl)=CC2=O)n1 [Example 104, (S)-2-[4-(2-Chloro-phenoxy)-2-oxo-2,5-dihydro-pyrrol-1-yl]-4-methyl-pentanoic acid [3-(2-methoxy-ethyl)-[1,2,4]thiadiazol-5-yl]-amide] | 1.03 µM |
| CC(C)C[C@@H](C(=O)Nc1ccn(C[C@@H](O)CO)n1)N1CC(Oc2cccc(N3CCCC3)c2F)=CC1=O [Example 142, (S)-2-[4-(2-Fluoro-3-pyrrolidin-1-yl-phenoxy)-2-oxo-2,5-dihydro-pyrrol-1-yl]-4-methyl-pentanoic acid [1-((R)-2,3-dihydroxy-propyl)-1H-pyrazol-3-yl]-amide] | 0.234 µM |
| CC(C)(O)Cn1ccc(NC(=O)[C@H](CC2CCCCC2)N2CC(OCC3COc4ccccc4O3)=CC2=O)n1 (stereo partly drawn) [Example 60, (S)-3-Cyclohexyl-2-[4-(2,3-dihydro-benzo[1,4]dioxin-2-ylmethoxy)-2-oxo-2,5-dihydro-pyrrol-1-yl]-N-[1-(2-hydroxy-2-methyl-propyl)-1-H-pyrazol-3-yl]-propionamide] | 0.99 µM |
| CC(C)(O)Cn1ccc(NC(=O)[C@H](CC2CCCC2)N2CC(OCc3ccccc3)=CC2=O)n1 [Example 14, (S)-2-(4-Benzyloxy-2-oxo-2,5-dihydro-pyrrol-1-yl)-3-cyclopentyl-N-[1-(2-hydroxy-2-methyl-propyl)-1H-pyrazol-3-yl]-propionamide] | 0.368 µM |
| CCOc1cccc(OC2=CC(=O)N([C@@H](CC(C)C)C(=O)Nc3ccn(CC(C)(C)O)n3)C2)c1F [Example 114, (S)-2-[4-(3-Ethoxy-2-fluoro-phenoxy)-2-oxo-2,5-dihydro-pyrrol-1-yl]-4-methyl-pentanoic acid [1-(2-hydroxy-2-methyl-propyl)-1H-pyrazol-3-yl]-amide] | 0.02 µM |

Further lines, results first:

| SC1.5 (concentration of activator that produced a 50% increase in the activity of GK) | Structure (SMILES) |
| --- | --- |
| 0.113 µM | CC[C@@H](C)CC(C(=O)Nc1ccn(C[C@@H](O)CO)n1)N1CC(Oc2ccccc2Cl)=CC1=O (stereo partly drawn) [Example 253, (R)-2-[4-(2-Chloro-phenoxy)-2-oxo-2,5-dihydro-pyrrol-1-yl]-4-methyl-hexanoic acid [1-((R)-2,3-dihydroxy-propyl)-1H-pyrazol-3-yl]-amide] |
| 0.024 µM | CCOc1ccc(F)c(OC2=CC(=O)N([C@@H](CC(C)C)C(=O)Nc3ccn(CC(C)(C)O)n3)C2)c1F [Example 260, (S)-2-[4-(3-Ethoxy-2,6-difluoro-phenoxy)-2-oxo-2,5-dihydro-pyrrol-1-yl]-4-methyl-pentanoic acid [1-(2-hydroxy-2-methyl-propyl)-1H-pyrazol-3-yl]-amide] |
| 0.137 µM | CC(C)(O)Cn1ccc(NC(=O)C(C[C@H]2C[C@@H](C)C2)N2CC(Oc3ccccc3Cl)=CC2=O)n1 (stereo partly drawn) [Example 217, 2-[4-(2-Chloro-phenoxy)-2-oxo-2,5-dihydro-pyrrol-1-yl]-N-[1-(2-hydroxy-2-methyl-propyl)-1H-pyrazol-3-yl]-3-(cis-3-methyl-cyclobutyl)-propionamide] |
| 0.073 µM | CC(C)(O)Cn1ccc(NC(=O)C(CC2CCOCC2)N2CC(Oc3ccccc3Br)=CC2=O)n1 (stereo not drawn) [Example 261, 2-[4-(2-Bromo-phenoxy)-2-oxo-2,5-dihydro-pyrrol-1-yl]-N-[1-(2-hydroxy-2-methyl-propyl)-1H-pyrazol-3-yl]-3-(tetrahydro-pyran-4-yl)-propionamide] |
| 0.496 µM | CC1(C)OC[C@@H](Cn2ccc(NC(=O)[C@H](Cc3ccccc3F)N3CC(Oc4ccccc4Cl)=CC3=O)n2)O1 [Example 182, (S)-2-[4-(2-chloro-phenoxy)-2-oxo-2,5-dihydro-pyrrol-1-yl]-N-[1-((R)-2,2-dimethyl-[1,3]dioxolan-4-yl-methyl)-1H-pyrazol-3-yl]-3-(2-fluoro-phenyl)-propionamide] |
| 16.154 µM | CC[C@@H](C)C[C@H](C(=O)Nc1ccn(C[C@@H](O)CO)n1)N1CC(Oc2ccccc2Cl)=CC1=O (single isomer, unassigned) [Example 254] |
| 0.013 µM | CC(C)(O)Cn1ccc(NC(=O)[C@H](CC2CCCCC2)N2CC(Oc3cc(Cl)ccc3Cl)=CC2=O)n1 [Example 201, (S)-3-cyclohexyl-2-[4-(2,5-dichloro-phenoxy)-2-oxo-2,5-dihydro-pyrrol-1-yl]-N-[1-(2-hydroxy-2-methyl-propyl)-1H-pyrazol-3-yl]-propionamide] |
| 0.044 µM | CCOc1ccc(F)c(OC2=CC(=O)N(C(CC3CCOCC3)C(=O)Nc3ccn(CC(C)(C)O)n3)C2)c1F (stereo not drawn) [Example 256, 2-[4-(3-Ethoxy-2,6-difluoro-phenoxy)-2-oxo-2,5-dihydro-pyrrol-1-yl]-N-[1-(2-hydroxy-2-methyl-propyl)-1H-pyrazol-3-yl]-3-(tetrahydro-pyran-4-yl)-propionamide] |
| 0.018 µM | Cc1cccc(OC2=CC(=O)N([C@@H](CC3CCCCC3)C(=O)Nc3ccn(CC(C)(C)O)n3)C2)c1 [Example 210, (S)-3-cyclohexyl-N-[1-(2-hydroxy-2-methyl-propyl)-1H-pyrazol-3-yl]-2-(2-oxo-4-m-tolyloxy-2,5-dihydro-pyrrol-1-yl)-propionamide] |
| 2.231 µM | COc1ccccc1OC1=CC(=O)N([C@@H](CC2CCCO2)C(=O)Nc2ccn(CC(C)(C)O)n2)C1 (stereo partly drawn) [Example 178, (S)-N-[1-(2-hydroxy-2-methyl-propyl)-1H-pyrazol-3-yl]-2-[4-(2-methoxy-phenoxy)-2-oxo-2,5-dihydro-pyrrol-1-yl]-3-(tetrahydro-furan-2-yl)-propionamide] |

Test system: C57B6 mice
Experiment: Glucokinase activator in vivo screen: blood glucose lowering in mice after oral dosing
Conditions: Mus musculus, vs control, 4 h post 30 mg/kg oral dose, read-out: % gluc lowering @ 4 H
Procedure: Glucokinase Activator in vivo Screen Protocol in Lean and Diet Induced Obese Mice: Lean or Diet-Induced Obese (DIO) C57BL/6J mice were orally dosed via gavage with Glucokinase (GK) activator following a two hour fasting period. Blood glucose determinations were made at various (e.g. 0, 1, 2, 4 and 8 h post-oral gavage) times during the study.
C57Bl/6J mice were obtained from Jackson Laboratory (Bar Harbor, Me.) and were maintained in a light-dark cycle with lights on from 0600-1800 hr. For studies in lean mice, the mice were received at age ten weeks and given ad libitum access to control diet (LabDiet 5001 chow, PMI Nutrition, Brentwood, Mo.), and were at least age 11 weeks at the time of study. For studies in the DIO model, the mice were received at age five weeks and given ad libitum access to Bio-Serv F3282 High Fat Diet (Frenchtown, N.J.), and were at least age 16 weeks at the time of study. The experiments were conducted during the light phase of the light-dark cycle. Mice (n=6) are weighed and fasted for a two hour period prior to oral treatment. GK activators are formulated in Gelucire vehicle (Ethanol:Gelucire44/14:PEG400q.s. 4:66:30 v/w/v. For studies in lean mice, the mice were dosed orally with 5.0 μL per gram of body weight (i.e. 5 ml/kg×10.0 mg/ml formulation to equal a 50 mg/kg dose). For studies in DIO mice, the mice were dosed orally with 5.0 μL per gram of body weight (i.e. 5.0 ml/kg×5 mg/ml formulation to equal a 25 mg/kg dose). Immediately prior to dosing, a pre-dose (time zero) blood glucose reading was acquired by snipping off a small portion of the animal's tail and collecting 15 μL blood into a heparinized capillary tube for analysis. Following GK activator administration, additional blood glucose readings were taken at various time points post dose from the same tail wound. Results were interpreted by comparing the mean blood glucose values of vehicle treated mice with GK activator treated mice over the study period.
The Table below provides data for % glucose lowering of a representative number of compounds of the present invention vs control at 4 h post 25 or 30 mg/kg dose in C57B6 mice: […]

| Structure (SMILES) | change in vivo at 30 mg/kg |
| --- | --- |
| COc1cccc(OC2=CC(=O)N([C@@H](CC(C)C)C(=O)Nc3ccn(CC(C)(C)O)n3)C2)c1Cl [Example 48, (S)-2-[4-(2-Chloro-3-methoxy-phenoxy)-2-oxo-2,5-dihydro-pyrrol-1-yl]-4-methyl-pentanoic acid [1-(2-hydroxy-2-methyl-propyl)-1H-pyrazol-3-yl]-amide] | -57.4% |
| COc1cccc(OC2=CC(=O)N([C@@H](CC(C)C)C(=O)Nc3ccn(C[C@@H](O)CO)n3)C2)c1Cl [Example 49] | -38.3% |
